According to patent publication US11840537B2, “Preparation and application of a 5-bromoquinazoline derivative” (Hefei University of Technology, priority 2020, dated 2023):
Structures can show the parent of a compound that is named as a salt.

What was measured:
Type in all cases: cell-based
breast cancer cell MCF-7 = test: Anti-cancer activity, breast cancer cell MCF-7; details: breast cancer cells (MCF-7)
[1] = test system: hepatoma carcinoma cell SMMC-7721; test: Anti-cancer activity, hepatoma carcinoma cell SMMC-7721; details: liver cancer (SMMC-7721)
leukemia HL-60 = test: Anti-cancer activity, leukemia HL-60 cells
colon cancer SW480 = test: Anti-cancer activity, colon cancer SW480 cells

Measured: strong inhibitory activity (ED50)

COC(=O)C1(Nc2nc(=O)[nH]c3ccc(Br)cc23)c2cc(Br)ccc2NC12C(=O)Nc1ccc(Br)cc12 (stereo not shown) [compound (I), 3-[5, 5′-dibromo-3-((6-bromo-2-oxo-1,2-dihydroquinazoline-4-amino)-2′-oxo (2,3′-spirobisindole)]methyl formate]
< 10.0 µg/mL: all assays above
